Assay results reported in patent publication US20260166039A1 (SCHRÖDINGER, INC., priority 2022, published 2026).
pIC50: −log10 of the molar value. Read-outs that look alike come from different tables or passages of the source.

Key:
[1] = test system: phosphorylation of Cdc2 Y15 (Wee1 substrate) in A427 cells; test: Phosphorylated Cdc2 MSD Electrochemiluminescence Assay; type: cell-based; details: Homo sapiens
Outline: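 Read-out: percent residual phospho-Cdc2 Y15 relative to DMSO and positive-control Wee1 inhibitor, measured by MSD electrochemiluminescence capture/detection antibody assay in cell lysates. A427 cells received duplicate 3-fold compound dilution series 20 h post-seeding, with 6 h total incubation at 37 °C.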

Wee1 kinase domain = target: T1, Wee1 kinase domain (Homo sapiens, UniProt P30291); test: Wee1 Kinase Biochemical Assay (ADP-Glo); details: 15 uM ATP
T1 construct: Wee1 kinase domain was purchased from Carna (catalog #05-177); purchased Carna 05-177
T1 sequence (P30291 299-569 limits assumed): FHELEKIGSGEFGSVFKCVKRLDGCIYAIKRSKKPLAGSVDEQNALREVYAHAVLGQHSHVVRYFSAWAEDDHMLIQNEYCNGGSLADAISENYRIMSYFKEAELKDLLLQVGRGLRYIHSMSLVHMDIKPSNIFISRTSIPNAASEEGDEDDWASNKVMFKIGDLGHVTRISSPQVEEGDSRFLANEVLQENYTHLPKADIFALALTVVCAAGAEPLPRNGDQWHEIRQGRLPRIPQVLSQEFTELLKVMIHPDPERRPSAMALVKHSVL
Outline: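 Compounds tested against 1 nM Wee1 kinase domain in Tris buffer containing 20 mM MgCl2, BSA and 2 mM DTT, with 15 uM ATP and poly(Lys,Tyr) substrate for 4 h at 25 °C. Luminescent ADP detection gave percent inhibition, normalized to DMSO and saturating inhibitor.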

[2] = A-427, class symbols, read-out: A427 pCDC2 MSD IC50
[3] = class symbols, 1 nM Wee1 enzyme, 4 hours at 25° C.

| pIC50 [1, 2] | pIC50 (Wee1 kinase domain; [3]) | pIC50 ([1]; A-427, pCDC2 MSD) | pIC50 (Wee1 kinase domain; Wee1 kinase domain, ADP-Glo) | SMILES |
| --- | --- | --- | --- | --- |
| 6.00 to 7.00 | > 8.00 | – | – | CNCc1cccc(N2c3nc(Nc4ccc([C@@H]5CCNC5)cc4)ncc3[C@@]3(C)COC(C)(C)C[C@@H]23)n1 (single isomer, unassigned) [Example 454] |
| 6.00 to 7.00 | > 8.00 | – | – | Cc1cc(Nc2ncc3c(n2)N(c2cccc(N4CCCC4=O)n2)[C@@H]2CC(C)(C)OC[C@]32C)ccc1N1C[C@H]2C[C@@H]1CN2C [Example 658, 1-(6-((4bR,8aR)-4b,7,7-trimethyl-2-((3-methyl-4-((1R,4R)-5-methyl-2,5-diazabicyclo[2.2.1]heptan-2-yl)phenyl)amino)-4b,7,8,8a-tetrahydropyrano[3′,4′:4,5]pyrrolo[2,3-d]pyrimidin-9(5H)-yl)pyridin-2-yl)pyrrolidin-2-one] |
| – | – | 5.00 to 6.00 | > 8.00 | CC1(C)C[C@H]2N(c3cccc(N=S(C)(C)=O)n3)c3nc(Nc4cnccn4)ncc3[C@@]2(C)CO1 (single isomer, unassigned) [Example 366] |
| 6.00 to 7.00 | > 8.00 | – | – | Cn1cc([C@H]2C[C@@H]2C(=O)Nc2ncc3c(n2)N(c2cccc(N=S(C)(C)=O)n2)[C@@H]2CC(C)(C)OC[C@]32C)cn1 (single isomer, unassigned) [Example 406] |
| – | – | 6.00 to 7.00 | > 8.00 | CN1CCC(c2ccc(Nc3ncc4c(n3)N(c3cccc(N=S(C)(C)=O)n3)[C@@H]3CC(C)(C)OC[C@]43C)cc2F)CC1 (single isomer, unassigned) [Example 177] |
| – | – | > 7.00 | > 8.00 | C[C@H]1COC(=O)N1c1cccc(N2c3nc(Nc4ccc([C@H]5CCN(C)C5)nc4)ncc3[C@@]3(C)COC(C)(C)C[C@@H]23)n1 (single isomer, unassigned) [Example 263] |
| – | – | > 7.00 | > 8.00 | CNCc1cccc(N2c3nc(Nc4ccc(N5C[C@H]6C[C@@H]5CO6)cc4)ncc3[C@@]3(C)COC(C)(C)C[C@@H]23)n1 (single isomer, unassigned) [Example 44] |
| 6.00 to 7.00 | > 8.00 | – | – | CN[C@H](c1cccc(N2c3nc(Nc4ccc(N5CCN(C)CC5)cc4)ncc3[C@@]3(C)COC(C)(C)C[C@@H]23)n1)C(F)(F)F [Example 755, (4bR,8aR)-4b,7,7-trimethyl-N-(4-(4-methylpiperazin-1-yl)phenyl)-9-(6-((R)-2,2,2-trifluoro-1-(methylamino)ethyl)pyridin-2-yl)-4b,5,7,8,8a,9-hexahydropyrano[3′,4′:4,5]pyrrolo[2,3-d]pyrimidin-2-amine] |
| – | – | > 7.00 | > 8.00 | CN1CC(c2ccc(Nc3ncc4c(n3)N(c3cccc(N=S(C)(C)=O)n3)[C@@H]3CC(C)(C)OC[C@]43C)cc2F)C1 (single isomer, unassigned) [Example 184] |
| > 7.00 | > 8.00 | – | – | CC1(C)C[C@H]2N(c3cccc(P(C)(C)=O)n3)c3nc(Nc4ccn([C@@H]5CCOC5)c(=O)c4)ncc3[C@@]2(C)CO1 [Example 783, 4-(((4bR,8aR)-9-(6-(dimethylphosphoryl)pyridin-2-yl)-4b,7,7-trimethyl-4b,5,7,8,8a,9-hexahydropyrano[3′,4′:4,5]pyrrolo[2,3-d]pyrimidin-2-yl)amino)-1-((R)-tetrahydrofuran-3-yl)pyridin-2(1H)-one] |
| 6.00 to 7.00 | > 8.00 | – | – | C[C@@H]1COC(=O)N1c1cccc(N2c3nc(Nc4ccc(N5CCN(C)CC5)cc4)ncc3[C@@]3(C)COC(C)(C)C[C@@H]23)n1 (single isomer, unassigned) [Example 589] |
| 6.00 to 7.00 | > 8.00 | – | – | Cc1cc(Nc2ncc3c(n2)N(c2cccc(N4CCCC4=O)n2)[C@@H]2CC(C)(C)OC[C@]32C)ccc1N1C[C@@H]2C[C@H]1CN2C [Example 652, 1-(6-((4bR,8aR)-4b,7,7-trimethyl-2-((3-methyl-4-((1S,4S)-5-methyl-2,5-diazabicyclo[2.2.1]heptan-2-yl)phenyl)amino)-4b,7,8,8a-tetrahydropyrano[3′,4′:4,5]pyrrolo[2,3-d]pyrimidin-9(5H)-yl)pyridin-2-yl)pyrrolidin-2-one] |
| > 7.00 | > 8.00 | – | – | CN1CC[C@H]2CN(c3ccc(Nc4ncc5c(n4)N(c4cccc(N6CCCC6=O)n4)[C@@H]4CC(C)(C)OC[C@]54C)cc3)C[C@H]21 [Example 688, 1-(6-((4bR,8aR)-4b,7,7-trimethyl-2-((4-((3aS,6aS)-1-methylhexahydropyrrolo[3,4-b]pyrrol-5(1H)-yl)phenyl)amino)-4b,7,8,8a-tetrahydropyrano[3′,4′:4,5]pyrrolo[2,3-d]pyrimidin-9(5H)-yl)pyridin-2-yl)pyrrolidin-2-one] |
| 6.00 to 7.00 | > 8.00 | – | – | CN1CC[C@@H](c2ccc(Nc3ncc4c(n3)N(c3cccc(N5CCOC5=O)n3)[C@@H]3CC(C)(C)OC[C@]43C)cc2)C1 (single isomer, unassigned) [Example 605] |
| 6.00 to 7.00 | > 8.00 | – | – | CN1CC[C@@H](c2ccc(Nc3ncc4c(n3)N(c3cccc(N5CCCC5=O)n3)[C@@H]3CC(C)(C)OC[C@]43C)cc2)C1 [Example 642, 1-(6-((4bR,8aR)-4b,7,7-trimethyl-2-((4-((S)-1-methylpyrrolidin-3-yl)phenyl)amino)-46,7,8,8a-tetrahydropyrano[3′,4′:4,5]pyrrolo[2,3-d]pyrimidin-9(5H)-yl)pyridin-2-yl)pyrrolidin-2-one] |
| 6.00 to 7.00 | > 8.00 | – | – | CN1C[C@H]2C[C@@H]1CN2c1ccc(Nc2ncc3c(n2)N(c2cccc(C4(O)COC4)n2)[C@@H]2CC(C)(C)OC[C@]32C)cc1 (single isomer, unassigned) [Example 517] |
| 6.00 to 7.00 | > 8.00 | – | – | CC1(C)C[C@H]2N(c3cccc(N4CCCC4=O)n3)c3nc(Nc4ccc(C5CNC5)cc4)ncc3[C@@]2(C)CO1 [Example 662, 1-(6-((4bR,8aR)-2-((4-(azetidin-3-yl)phenyl)amino)-4b,7,7-trimethyl-4b,7,8,8a-tetrahydropyrano[3′,4′:4,5]pyrrolo[2,3-d]pyrimidin-9(5H)-yl)pyridin-2-yl)pyrrolidin-2-one] |
| 5.00 to 6.00 | > 8.00 | – | – | Cn1cc(Nc2ncc3c(n2)N(c2cccc(N=S(C)(C)=O)n2)[C@@H]2CC(C)(C)OC[C@]32C)ccc1=O (single isomer, unassigned) [Example 495] |
| 6.00 to 7.00 | > 8.00 | – | – | C[C@H]1CCC(=O)N1c1cccc(N2c3nc(Nc4ccc(N5C[C@H]6C[C@@H]5CN6C)cc4)ncc3[C@@]3(C)COC(C)(C)C[C@@H]23)n1 [Example 657, (S)-5-methyl-1-(6-((4bR,8aR)-4b,7,7-trimethyl-2-((4-((1R,4R)-5-methyl-2,5-diazabicyclo[2.2.1]heptan-2-yl)phenyl)amino)-4b,7,8,8a-tetrahydropyrano[3′,4′:4,5]pyrrolo[2,3-d]pyrimidin-9(5H)-yl)pyridin-2-yl)pyrrolidin-2-one] |
| – | – | 6.00 to 7.00 | > 8.00 | C[C@H]1COC(=O)N1c1cccc(N2c3nc(Nc4ccc(N5C[C@H]6C[C@@H]5CN6C)cc4)ncc3[C@@]3(C)COC(C)(C)C[C@@H]23)n1 (single isomer, unassigned) [Example 247] |
| – | – | 6.00 to 7.00 | > 8.00 | COc1ccc(Nc2ncc3c(n2)N(c2cccc(N=S(C)(C)=O)n2)[C@@H]2CC(C)(C)OC[C@]32C)nn1 (single isomer, unassigned) [Example 372] |
| 6.00 to 7.00 | > 8.00 | – | – | CN=[S@](C)(=O)c1cccc(N2c3nc(Nc4ccc(N5CC6(CN(C)C6)C5)cc4)ncc3[C@@]3(C)COC(C)(C)C[C@@H]23)n1 [Example 770, (R)-methyl(methylimino)(6-((4bR,8aR)-4b,7,7-trimethyl-2-((4-(6-methyl-2,6-diazaspiro[3.3]heptan-2-yl)phenyl)amino)-4b,7,8,8a-tetrahydropyrano[3′,4′:4,5]pyrrolo[2,3-d]pyrimidin-9(5H)-yl)pyridin-2-yl)-16-sulfanone] |
| – | – | 6.00 to 7.00 | > 8.00 | CNCc1cccc(N2c3nc(Nc4ccc([C@@]5(C)CCN(C)C5=O)cc4)ncc3[C@@]3(C)COC(C)(C)C[C@@H]23)n1 (single isomer, unassigned) [Example 80] |
| – | – | 6.00 to 7.00 | > 8.00 | C[C@H]1COC(=O)N1c1cccc(N2c3nc(Nc4ccc([C@@H]5CCNC5)nc4)ncc3[C@@]3(C)COC(C)(C)C[C@@H]23)n1 (single isomer, unassigned) [Example 257] |
| 6.00 to 7.00 | > 8.00 | – | – | CN1CC[C@@H](Oc2ccc(Nc3ncc4c(n3)N(c3cccc(N5CCCC5=O)n3)[C@@H]3CC(C)(C)OC[C@]43C)cc2)C1 [Example 626, 1-(6-((4bR,8aR)-4b,7,7-trimethyl-2-((4-(((R)-1-methylpyrrolidin-3-yl)oxy)phenyl)amino)-4b,7,8,8a-tetrahydropyrano[3′,4′:4,5]pyrrolo[2,3-d]pyrimidin-9(5H)-yl)pyridin-2-yl)pyrrolidin-2-one] |
| 5.00 to 6.00 | > 8.00 | – | – | Cn1cc(C(=O)Nc2ncc3c(n2)N(c2cccc(N=S(C)(C)=O)n2)[C@@H]2CC(C)(C)OC[C@]32C)cn1 (single isomer, unassigned) [Example 408] |

| SMILES | pIC50 [1, 2] | pIC50 (Wee1 kinase domain; [3]) | pIC50 ([1]; A-427, pCDC2 MSD) | pIC50 (Wee1 kinase domain; Wee1 kinase domain, ADP-Glo) |
| --- | --- | --- | --- | --- |
| CN1[C@@H]2C[C@H]1CN(c1ccc(Nc3ncc4c(n3)N(c3cccc(N=S(C)(C)=O)n3)[C@@H]3CC(C)(C)OC[C@]43C)cc1)C2 (single isomer, unassigned) [Example 506] | 6.00 to 7.00 | > 8.00 | – | – |
| CNCc1cccc(N2c3nc(Nc4ccc(N5C6CCC5COC6)c(C)c4)ncc3[C@@]3(C)COC(C)(C)C[C@@H]23)n1 (single isomer, unassigned) [Example 85] | – | – | 6.00 to 7.00 | > 8.00 |
